Experimental data published in patent US6962706B1, “Synthetic peptides containing protective epitopes for the treatment and prevention of periodontitis associated with porphyromonas gingivalis” (The University of Melbourne, priority 1999, dated 2005).

Tested on: serum IgG antibody (protective mouse sera, patient sera D20, D24, H10)
Experiment: Epitope mapping ELISA of PIN-bound PrtR27 overlapping peptides with human and mouse antisera
Type: binding
Details: PIN-bound overlapping 13 mer peptides, antisera diluted 1:1000, O.D. 450 nm
Excerpt: FIG. 6: Serum IgG antibody responses assessed by ELISA to Porphyromonas gingivalis PrtR-27 overlapping peptides (SEQ ID NOs:13-24, 33, and 25-32, respectively, from origin). Twenty one PIN-bound peptides were probed with normal mouse sera (▪), protective mouse sera (□), normal human serum (▪), patient D24 sera (▪), patient H10 sera (▪) and patient D20 sera (▪). ELISAs were developed as per Example 1.
Twenty overlapping 13 mer peptides (overlay by 6 and offset by 7 residues) corresponding to the N-terminal 148 residues of the PrtR27 were synthesised by Chiron Technologies (Melbourne, Australia) using the multipin peptide synthesis system. The sequence of the N-terminal 148 residues of the PrtR27 adhesin is as follows: • […] (SEQ ID NO: 12). The overlapping peptides synthesised were: • […] (SEQ ID NO:13) • […] (SEQ ID NO:14) • […] (SEQ ID NO:15) • […] (SEQ ID NO:16) • […] (SEQ ID NO:17) • […] (SEQ ID NO:18) • […] (SEQ ID NO:19) • […] (SEQ ID NO:20) • […] (SEQ ID NO:21) • […] (SEQ ID NO:22) • […] (SEQ ID NO:23) • […] (SEQ ID NO:24) • […] (SEQ ID NO:25) • […] (SEQ ID NO:26) • […] (SEQ ID NO:27) • […] (SEQ ID NO:28) • […] (SEQ ID NO:29) • […] (SEQ ID NO:30) • […] (SEQ ID NO:31) • […] (SEQ ID NO:32).
Epitope mapping of the pin-bound peptides was carried out by ELISA as per Chiron Technologies instructions using the human and mouse proteinase antisera at a dilution of 1:1000 in 1% w/v non-fat skim milk powder in 0.1M phosphate buffered saline, pH 7.4, containing 0.1% v/v Tween 20. The bound antibody was detected by incubating the peptide-PINS with 0.4 mM 3,3′,5,5′-tetramethylbenzidine in 0.1M sodium acetate/citric acid buffer containing 0.004% v/v H2O2. Colour development was stopped by the addition of 2M H2SO4. Optical density (O.D.) was measured at 450 nm using a BioRad microplate reader model 450.

Row | Sequence | Antibody binding of PrtR27 regions in ELISA (FIG. 6)
1 | RYDDFTFEAGKKYTFTMRRAGMGDGTD (listed as Porphyromonas gingivalis) [EP5] | bind antibody
2 | LYSANFESLIPANADPVVTTQNIIVTG (listed as Porphyromonas gingivalis) [EP2] | bind antibody
3 | FLLDADHNTFGSVIPATGPLFTGTASS (listed as Porphyromonas gingivalis) [EP1] | bind antibody
4 | TNPEPASGKMWIAGDGGNQP (listed as Porphyromonas gingivalis) [EP4] | bind antibody
